Reference: US6734182B2, “Aryl sulfonamides and sulfamide derivatives and uses thereof” (Synaptic Pharmaceutical Corporation, priority 1995, dated 2004)

Assays:
human 5HT1F receptor = molecular target: T1, human 5HT1F receptor (Homo sapiens, UniProt P30939); test: Binding to human 5HT1F receptor ([3H]serotonin); settings: cloned human receptor
T1 construct: expressed in transfected cells
T1 sequence (P30939 1-366): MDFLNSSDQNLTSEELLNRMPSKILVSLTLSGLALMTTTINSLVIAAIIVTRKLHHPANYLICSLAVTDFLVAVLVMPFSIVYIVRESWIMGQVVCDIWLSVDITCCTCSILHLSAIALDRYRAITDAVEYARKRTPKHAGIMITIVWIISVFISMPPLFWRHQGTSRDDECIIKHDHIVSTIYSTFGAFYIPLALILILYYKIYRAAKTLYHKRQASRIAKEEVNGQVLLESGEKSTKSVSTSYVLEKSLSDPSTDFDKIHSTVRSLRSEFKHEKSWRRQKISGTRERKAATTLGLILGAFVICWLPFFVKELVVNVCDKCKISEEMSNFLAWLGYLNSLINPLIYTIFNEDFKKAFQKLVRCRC
Experimental: 5HT1Dα, 5HT1Dβ, 5HT1E, 5HT1F Receptors: LM(tk−) clonal cell lines stably transfected with the genes encoding each of these 5HT receptor subtypes were prepared as described above. The cell line for the 5HT1Dα, receptor, designated as Ltk−8-30-84, was deposited on Apr. 17, 1990, and accorded ATCC Accession No. CRL 10421. The cell for the 5HT1Dβ receptor, designated as Ltk−11, was deposited on Apr. 17, 1990, and accorded ATCC Accession No. CRL 10422. The cell line for the 5HT1E receptor, designated 5 HT1E-7, was deposited on Nov. 6, 1991, and accorded ATCC Accession No. CRL 10913. The cell line for the 5HT1F receptor, designated L-5-HT1F, was deposited on Dec. 27, 1991, and accorded ATCC Accession No. ATCC 10957. Membrane preparations comprising these receptors were prepared as described below, and suspended in 50 mM Tris-HCl buffer (pH 7.4 at 37° C.) containing 10 mM MgCl2, 0.2 mM EDTA, 10 μM pargyline, and 0.1% ascorbate. The binding of compounds was determined in competition binding assays by incubation for 30 minutes at 37° C. in the presence of 5 nM [^3H) serotonin. Nonspecific binding was determined in the presence of 10 μM serotonin. The bound radioligand was separated by filtration through GF/B filters using a cell harvester.

human α1b receptor = molecular target: T2, human α1b receptor (Homo sapiens, UniProt P35368); test: Binding to cloned human α1b adrenergic receptor
T2 construct: expressed in transfected cells
T2 sequence (P35368 whole entry): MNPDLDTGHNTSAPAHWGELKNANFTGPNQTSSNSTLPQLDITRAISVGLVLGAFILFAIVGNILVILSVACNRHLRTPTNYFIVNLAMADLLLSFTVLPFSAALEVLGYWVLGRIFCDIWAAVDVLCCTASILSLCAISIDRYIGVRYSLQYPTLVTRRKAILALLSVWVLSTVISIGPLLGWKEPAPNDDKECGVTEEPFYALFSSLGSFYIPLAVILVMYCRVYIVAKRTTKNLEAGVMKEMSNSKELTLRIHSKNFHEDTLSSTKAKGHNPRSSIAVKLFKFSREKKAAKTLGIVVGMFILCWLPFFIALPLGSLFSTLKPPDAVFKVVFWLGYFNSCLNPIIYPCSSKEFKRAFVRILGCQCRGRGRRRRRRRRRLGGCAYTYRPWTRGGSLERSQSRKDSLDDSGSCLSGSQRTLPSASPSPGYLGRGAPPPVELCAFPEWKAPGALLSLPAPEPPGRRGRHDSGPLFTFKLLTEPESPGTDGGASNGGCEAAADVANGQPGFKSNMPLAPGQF
Text: α1 Human Adrenergic Receptors: To determine the binding of compounds to human α1 receptors, LM(tk−) cell lines stably transfected with the genes encoding the α1a, α1b, and α1d receptors were used. The nomenclature describing the α1 receptors was changed recently, such that the receptor formerly designated α1a is now designated α1d, and the receptor formerly designated α1c is now designated α1a (ref).

human Y2 receptor = molecular target: T3, human Y2 receptor (Homo sapiens, UniProt P49146); test: Radioligand binding to cloned human Y2 receptor (125I-PYY); settings: cloned human Y2, stably transfected cells, read-out: Binding Affinity (K1 (nM) vs. 125I-PYY) Human Receptor Y2
T3 construct: expressed in transfected cells
T3 sequence (P49146 1-381): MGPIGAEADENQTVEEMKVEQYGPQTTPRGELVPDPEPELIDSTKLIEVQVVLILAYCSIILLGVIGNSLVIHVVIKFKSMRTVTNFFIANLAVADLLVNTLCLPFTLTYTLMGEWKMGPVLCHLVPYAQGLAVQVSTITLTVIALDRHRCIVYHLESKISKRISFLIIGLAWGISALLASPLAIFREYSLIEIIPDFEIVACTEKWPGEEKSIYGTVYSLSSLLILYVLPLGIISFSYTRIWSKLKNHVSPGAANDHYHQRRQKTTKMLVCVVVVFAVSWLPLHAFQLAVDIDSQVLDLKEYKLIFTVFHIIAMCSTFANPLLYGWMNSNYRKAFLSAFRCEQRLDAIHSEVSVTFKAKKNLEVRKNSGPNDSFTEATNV
Experimental: Human Y1, human Y2, and rat Y5 receptors were co-transfected with a G-418 resistant gene into the human embryonic kidney 293 cell line by a calcium phosphate transfection method (Cullen, 1987). Stably transfected cells were selected with G-418. Human Y4 and human Y5 receptors were similarly transfected into mouse fibroblast LM(tk−) cells and NIH-3T3 cells.
Binding of the compounds of the present invention to the human Y1, Y2, Y4 and Y5 receptors was evaluated using stably transfected 293 or LM(tk−) cells as described above. Stably transfected cell lines which may be used for binding assays include, for example, for the human Y1 receptor, 293-hY1-5 (deposited Jun. 4, 1996, under ATCC Accession No. CRL-12121), for the human Y2 receptor, 293-hY2-10 (deposited Jan. 27, 1994, under ATCC Accession No. CRL-11537), for the human Y4 receptor, L-hY4-3 (deposited Jan. 11, 1995, under ATCC Accession No. CRL-11779), and for the human Y5 receptor, L-hY5-7 (deposited Nov. 15, 1995, under ATCC Accession No. CRL-11995).
Membranes were harvested from COS-7 cells 48 hours after transient transfection. Adherent cells were washed twice in ice-cold phosphate buffered saline (138 mM NaCl, 8.1 mM Na2HPO4, 2.5 mM KCl, […], 0.9 mM CaCl2, 0.5 mM MgCl2, pH 7.4) and lysed by sonication in ice-cold sonication buffer (20 mM Tris-HCl, 5 mM EDTA, pH 7.7). Large particles and debris were cleared by low speed centrifugation (200 x g, 5 min, 4° C.). Membranes were collected from the supernatant fraction by centrifugation (32,000 x g, 18 min, […] ), washed with ice-cold hypotonic buffer, and collected again by centrifugation (32,000 x g, 18 min, 4° C.). […] Protein concentration was measured by the Bradford method (Bradford, 1976) using Bio-Rad Reagent, with bovine serum albumin as a standard. Membranes were held on ice for up to one hour and used fresh, or flash-frozen and stored in liquid nitrogen.
Membranes were prepared similarly from 293, LM(tk−), and NIH-3T3 cells. To prepare membranes from baculovirus infected cells, 2×10^7 Sf21 cells were grown in 150 mm tissue culture dishes and infected with a high-titer stock of hY5BB3. Cells were incubated for 2-4 days at 27° C., no CO2 be fore harvesting and membrane preparation as described above.

human 5HT7 receptor = molecular target: T4, human 5HT7 receptor (Homo sapiens, UniProt P34969); test: Binding to human 5HT7 receptor; settings: cloned human receptor
T4 construct: expressed in transfected cells
T4 sequence (P34969 whole entry): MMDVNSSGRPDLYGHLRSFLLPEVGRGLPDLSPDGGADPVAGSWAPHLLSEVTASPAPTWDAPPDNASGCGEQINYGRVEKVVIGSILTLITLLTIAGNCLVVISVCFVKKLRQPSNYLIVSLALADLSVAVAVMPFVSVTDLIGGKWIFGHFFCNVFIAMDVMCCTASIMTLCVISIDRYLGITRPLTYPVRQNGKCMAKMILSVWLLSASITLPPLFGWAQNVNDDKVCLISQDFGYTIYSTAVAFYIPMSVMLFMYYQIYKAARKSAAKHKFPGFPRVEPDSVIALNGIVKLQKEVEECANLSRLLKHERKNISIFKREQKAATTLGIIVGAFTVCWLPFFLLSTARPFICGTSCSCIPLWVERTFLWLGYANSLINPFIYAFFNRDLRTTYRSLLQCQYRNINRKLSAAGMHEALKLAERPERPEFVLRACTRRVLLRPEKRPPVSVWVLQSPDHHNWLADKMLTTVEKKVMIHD
Experimental: Human 5-ET7 Receptor: A LM(tk−) clonal cell line stably transfected with the gene encoding the 5HT7 receptor subtype was prepared as described above.

Row | SMILES | Receptor (pKi) 5HT1F (human 5HT1F receptor) | Receptor (pKi) α1b (human α1b receptor) | Ki (human Y2 receptor) [nM] | Receptor (pKi) 5HT7 (human 5HT7 receptor)
1 | Cl.O=S(=O)(NCC1CCC(CNCC2CCc3ccccc3C2)CC1)c1cccc2ccccc12 (centres unmarked) [Example 32] | ≤ 5.30 | 7.35 | 955 | 6.42
2 | Cl.O=[N+]([O-])c1ccccc1S(=O)(=O)NCC1CCC(CNCC2CCc3ccccc3C2)CC1 (centres unmarked) [Example 36] | ≤ 5.30 | 7.22 | 7760 | 6.37
